{"source": "paper PMC7313537", "about": "(PLoS ONE, 2020)", "key": {"[1]": {"molecular_target": "CHEK1 (Homo sapiens, UniProt O14757)", "test": "Enzyme selectivity panel", "assay_type": "biochemical", "conditions": "1 mM ATP", "quoted_text": "(§2) The kinase assays were carried out at room temperature in HEPES 50 mM, pH 7.0, NaN3 0.02%, BSA 0.01%, Orthovanadate 0.1 mM, DTT 1 mM, MgCl2 10 mM in a final volume of 10 µL. Test compounds were transferred to the plate wells by ECHO liquid handler (Labcyte, San Jose, CA) with 0.5% dimethyl sulfoxide (DMSO) in the final assay. Peptide/kinase mixtures were diluted in the appropriate enzymatic buffer and 5µL of the mixture was added to a 384-well small volume black plate. Reactions were initiated by the addition of 5 µL ATP in reaction buffer, the final reaction mixture consisted of 500 nM peptide substrate, 1 mM ATP, and appropriate amount of specific kinase. […] The plates were then sealed and centrifuged at 1800 rpm for 2 minutes. […] Half maximal inhibitory concentration (IC50) determination was performed by fitting the curve of percent control activity versus the log of the compound concentration using the GraphPad Prism 6.0 software."}, "[2]": {"molecular_target": "DYRK2 (Homo sapiens, UniProt Q92630)", "sequence (Q92630 whole entry, species assumed)": "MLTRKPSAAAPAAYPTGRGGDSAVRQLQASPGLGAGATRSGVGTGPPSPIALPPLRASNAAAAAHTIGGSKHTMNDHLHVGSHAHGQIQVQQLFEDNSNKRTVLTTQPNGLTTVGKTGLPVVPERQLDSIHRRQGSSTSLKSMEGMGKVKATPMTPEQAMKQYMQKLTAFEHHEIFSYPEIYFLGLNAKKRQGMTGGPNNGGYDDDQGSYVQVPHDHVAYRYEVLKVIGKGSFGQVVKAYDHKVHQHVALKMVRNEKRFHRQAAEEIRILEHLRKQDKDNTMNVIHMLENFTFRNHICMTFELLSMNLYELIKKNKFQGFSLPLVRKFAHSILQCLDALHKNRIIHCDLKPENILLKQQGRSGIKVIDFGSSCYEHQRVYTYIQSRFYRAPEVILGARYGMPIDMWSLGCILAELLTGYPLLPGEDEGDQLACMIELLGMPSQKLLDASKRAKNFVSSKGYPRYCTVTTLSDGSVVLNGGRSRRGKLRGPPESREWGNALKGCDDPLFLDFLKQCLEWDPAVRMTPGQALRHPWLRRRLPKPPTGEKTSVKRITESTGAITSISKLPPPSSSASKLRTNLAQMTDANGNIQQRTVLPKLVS", "test": "Enzyme selectivity panel", "assay_type": "biochemical", "conditions": "1 mM ATP", "quoted_text": "as §2"}, "[3]": {"molecular_target": "EGFR (Homo sapiens, UniProt P00533)", "test": "Enzyme selectivity panel", "assay_type": "biochemical", "conditions": "1 mM ATP", "quoted_text": "as §2"}, "[4]": {"molecular_target": "ERBB4 (Homo sapiens, UniProt Q15303)", "sequence (Q15303 26-1308, species assumed)": "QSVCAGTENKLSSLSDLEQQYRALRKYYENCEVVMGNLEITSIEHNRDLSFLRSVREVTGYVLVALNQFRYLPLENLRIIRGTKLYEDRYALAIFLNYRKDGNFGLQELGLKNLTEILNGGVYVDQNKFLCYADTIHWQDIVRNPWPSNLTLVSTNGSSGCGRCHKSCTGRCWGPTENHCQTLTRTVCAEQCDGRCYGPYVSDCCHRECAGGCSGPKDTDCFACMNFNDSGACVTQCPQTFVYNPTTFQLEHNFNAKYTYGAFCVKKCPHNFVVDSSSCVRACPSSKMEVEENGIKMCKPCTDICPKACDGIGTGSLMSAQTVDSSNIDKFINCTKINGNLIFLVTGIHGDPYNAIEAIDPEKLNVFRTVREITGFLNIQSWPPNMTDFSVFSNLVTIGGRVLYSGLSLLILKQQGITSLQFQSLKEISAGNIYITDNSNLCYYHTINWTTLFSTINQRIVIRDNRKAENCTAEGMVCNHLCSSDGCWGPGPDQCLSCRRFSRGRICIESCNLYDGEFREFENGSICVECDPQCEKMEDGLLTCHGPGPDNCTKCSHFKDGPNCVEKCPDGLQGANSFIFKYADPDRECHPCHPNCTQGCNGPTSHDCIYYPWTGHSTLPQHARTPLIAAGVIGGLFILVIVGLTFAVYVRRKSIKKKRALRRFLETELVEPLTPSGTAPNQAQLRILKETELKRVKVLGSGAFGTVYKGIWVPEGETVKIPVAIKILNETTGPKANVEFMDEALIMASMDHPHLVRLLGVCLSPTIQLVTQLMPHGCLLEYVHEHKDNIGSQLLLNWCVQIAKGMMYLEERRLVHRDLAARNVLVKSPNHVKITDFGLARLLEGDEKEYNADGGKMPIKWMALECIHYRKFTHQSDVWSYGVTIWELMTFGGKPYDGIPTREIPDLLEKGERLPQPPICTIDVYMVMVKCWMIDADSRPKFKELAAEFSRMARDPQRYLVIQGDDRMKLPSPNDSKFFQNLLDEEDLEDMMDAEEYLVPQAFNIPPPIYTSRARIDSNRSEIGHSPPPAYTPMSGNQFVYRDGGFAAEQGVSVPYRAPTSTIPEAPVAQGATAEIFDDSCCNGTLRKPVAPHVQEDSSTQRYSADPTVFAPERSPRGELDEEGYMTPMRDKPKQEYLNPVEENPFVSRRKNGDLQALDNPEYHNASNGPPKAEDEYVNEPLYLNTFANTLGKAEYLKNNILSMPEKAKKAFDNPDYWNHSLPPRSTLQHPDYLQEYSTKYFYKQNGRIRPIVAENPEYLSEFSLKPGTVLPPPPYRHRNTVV", "test": "Enzyme selectivity panel", "assay_type": "biochemical", "conditions": "1 mM ATP", "quoted_text": "as §2"}, "[5]": {"molecular_target": "MAP3K8 (Homo sapiens, UniProt P41279)", "test": "Enzyme selectivity panel", "assay_type": "biochemical", "conditions": "1 mM ATP", "quoted_text": "as §2"}, "[6]": {"molecular_target": "MAPKAPK2 (Homo sapiens, UniProt P49137)", "test": "Enzyme selectivity panel", "assay_type": "biochemical", "conditions": "1 mM ATP", "quoted_text": "as §2"}, "[7]": {"molecular_target": "T1, PIM2 (Homo sapiens, UniProt Q9P1W9)", "T1 construct": "purchased In-house HTRF panel (56 kinases) and PerkinElmer (161-kinase panel)", "test": "Enzyme selectivity panel", "assay_type": "biochemical", "conditions": "1 mM ATP", "quoted_text": "as §2"}, "[8]": {"molecular_target": "RET (Homo sapiens, UniProt P07949)", "sequence (P07949 29-1114, species assumed)": "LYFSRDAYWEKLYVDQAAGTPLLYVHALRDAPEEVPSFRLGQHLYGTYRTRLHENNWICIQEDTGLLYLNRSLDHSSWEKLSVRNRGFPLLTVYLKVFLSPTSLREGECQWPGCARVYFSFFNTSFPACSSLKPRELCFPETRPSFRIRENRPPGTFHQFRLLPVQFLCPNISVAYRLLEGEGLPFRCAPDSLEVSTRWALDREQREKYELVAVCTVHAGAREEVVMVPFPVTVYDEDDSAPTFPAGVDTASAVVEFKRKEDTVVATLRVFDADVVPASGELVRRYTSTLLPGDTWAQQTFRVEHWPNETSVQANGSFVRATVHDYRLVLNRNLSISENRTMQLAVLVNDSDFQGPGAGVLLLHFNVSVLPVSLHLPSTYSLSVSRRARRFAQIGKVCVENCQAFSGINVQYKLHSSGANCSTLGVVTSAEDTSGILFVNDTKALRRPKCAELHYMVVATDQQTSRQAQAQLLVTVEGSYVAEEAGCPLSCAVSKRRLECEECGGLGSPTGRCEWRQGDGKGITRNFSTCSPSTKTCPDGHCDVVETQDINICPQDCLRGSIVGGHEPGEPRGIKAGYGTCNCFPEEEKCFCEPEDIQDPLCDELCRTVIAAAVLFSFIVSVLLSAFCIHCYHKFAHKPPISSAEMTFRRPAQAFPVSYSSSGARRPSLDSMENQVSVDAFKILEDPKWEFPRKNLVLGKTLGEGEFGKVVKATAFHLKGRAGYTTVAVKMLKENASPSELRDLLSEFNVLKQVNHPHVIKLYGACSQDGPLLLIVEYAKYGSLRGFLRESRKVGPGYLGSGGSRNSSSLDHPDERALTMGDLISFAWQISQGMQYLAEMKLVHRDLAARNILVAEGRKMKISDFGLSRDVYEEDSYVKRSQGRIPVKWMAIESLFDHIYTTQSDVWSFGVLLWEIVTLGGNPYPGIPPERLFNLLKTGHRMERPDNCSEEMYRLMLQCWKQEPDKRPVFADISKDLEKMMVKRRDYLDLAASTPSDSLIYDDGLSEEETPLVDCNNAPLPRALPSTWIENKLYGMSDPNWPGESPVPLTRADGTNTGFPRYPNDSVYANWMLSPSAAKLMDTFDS", "test": "Enzyme selectivity panel", "assay_type": "biochemical", "conditions": "1 mM ATP", "quoted_text": "as §2"}, "[9]": {"molecular_target": "T2, SRC (Homo sapiens, UniProt P12931)", "T2 construct": "purchased In-house HTRF panel (56 kinases) and PerkinElmer (161-kinase panel)", "T2 sequence (P12931 whole entry, species assumed)": "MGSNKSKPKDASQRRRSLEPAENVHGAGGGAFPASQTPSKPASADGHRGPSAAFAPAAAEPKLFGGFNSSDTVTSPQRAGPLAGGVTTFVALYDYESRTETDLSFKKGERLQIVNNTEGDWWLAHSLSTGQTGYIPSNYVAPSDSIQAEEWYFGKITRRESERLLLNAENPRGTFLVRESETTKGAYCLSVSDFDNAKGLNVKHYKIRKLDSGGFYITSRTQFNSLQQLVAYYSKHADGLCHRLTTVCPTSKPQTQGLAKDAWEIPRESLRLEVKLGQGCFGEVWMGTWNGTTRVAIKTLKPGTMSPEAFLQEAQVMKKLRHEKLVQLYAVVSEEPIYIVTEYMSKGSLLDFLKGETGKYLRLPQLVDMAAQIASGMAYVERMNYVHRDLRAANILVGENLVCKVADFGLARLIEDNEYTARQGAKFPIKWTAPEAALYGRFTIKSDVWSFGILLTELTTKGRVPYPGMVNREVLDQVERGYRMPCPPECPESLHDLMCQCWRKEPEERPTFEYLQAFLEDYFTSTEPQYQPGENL", "test": "Enzyme selectivity panel", "assay_type": "biochemical", "conditions": "1 mM ATP", "quoted_text": "as §2"}, "[10]": {"molecular_target": "SYK (Homo sapiens, UniProt P43405)", "test": "Enzyme selectivity panel", "assay_type": "biochemical", "conditions": "1 mM ATP", "quoted_text": "as §2"}, "[11]": {"test_system": "VEGF-induced growth of human umbilical vein endothelial cells (HUVEC)", "test": "HUVEC proliferation stimulated with VEGF", "assay_type": "cell-based", "from_the_text": "S2 Figure. […] Directly. An assay was developed to evaluate the proliferation of human umbilical vein endothelial cells (HUVEC) when stimulated with basic FGF (b-FGF) or VEGF."}, "[12]": {"test_system": "HCC-422", "test": "Cell viability assay (CellTiter-Glo)", "assay_type": "cell-based", "conditions": "Lung cancer; lacking FGFR alterations"}, "[13]": {"test_system": "J82", "test": "Cell viability assay (CellTiter-Glo)", "assay_type": "cell-based", "conditions": "Homo sapiens, Bladder, lacking FGFR alterations"}, "[14]": {"test": "Plasma protein binding (equilibrium dialysis)", "assay_type": "in vitro ADME, cynomolgus monkey", "conditions": "pH 7.4, monkey plasma, read-out: PPB (% free)", "description": "The final DMSO content in all cases was <0.1%. Each condition was incubated in duplicate. For protein binding determination, the Multi-Equilibrium Dialyzer System™ and diachema membranes from Harvard Apparatus (Holliston, MA) were utilized. Equilibrium dialysis was carried out in Teflon cells separated by a dialysis membrane with a molecular weight cutoff of 10,000 Daltons. […] The cells were rotated at a speed of 12 rpm in a 37°C water bath for 2 hours. Following the incubation period, buffer and serum/plasma samples were drained separately into empty preweighed glass test tubes. The tubes were reweighed, and the exact volume of sample recovered from each side of the dialysis cell was calculated using the mass. A 75-μL aliquot of each sample (buffer or serum/plasma) was added to a 96-well plate containing a protein precipitation solution of 100% methanol and 0.2 μM dextrorphan as the internal standard; 75 μL of blank buffer or plasma/serum was added to the plate to ensure identical composition across all samples. Prior to analysis, samples prepared in the 96-well plate were vigorously vortexed for approximately 5 minutes and centrifuged for 10 minutes at ~1700 × g to remove denatured proteins and particulate matter. The supernatant was transferred and analyzed using LC-MS/MS."}, "[15]": {"molecular_target": "T3, CYP1A2 (Homo sapiens, UniProt P05177)", "T3 construct": "from tissue; host or cells: human liver microsomes", "T3 sequence (P05177 whole entry)": "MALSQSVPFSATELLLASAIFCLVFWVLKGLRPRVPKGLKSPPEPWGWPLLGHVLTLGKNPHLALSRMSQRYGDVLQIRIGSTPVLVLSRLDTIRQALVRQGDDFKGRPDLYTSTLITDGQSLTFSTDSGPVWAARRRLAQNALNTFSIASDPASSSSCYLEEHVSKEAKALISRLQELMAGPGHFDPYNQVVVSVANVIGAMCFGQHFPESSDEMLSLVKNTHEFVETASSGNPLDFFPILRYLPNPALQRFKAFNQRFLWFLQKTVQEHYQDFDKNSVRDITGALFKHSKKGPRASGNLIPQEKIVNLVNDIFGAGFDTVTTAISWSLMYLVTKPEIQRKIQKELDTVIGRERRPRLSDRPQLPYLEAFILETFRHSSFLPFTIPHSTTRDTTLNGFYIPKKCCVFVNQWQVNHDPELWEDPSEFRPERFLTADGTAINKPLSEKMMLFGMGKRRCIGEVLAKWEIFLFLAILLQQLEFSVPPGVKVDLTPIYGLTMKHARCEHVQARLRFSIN", "test": "CYP inhibition", "assay_type": "in vitro ADME", "conditions": "human liver microsomes", "description": "(§1) In addition, the known selective inhibitors of CYP1A2 (α-naphthoflavone), CYP2B6 (ticlopidine), CYP2C8 (quercetin), CYP2C9 (sulfaphenazole), CYP2C19 (tranylcypromine), CYP2D6 (quinidine), and CYP3A4 (ketoconazole) were included as positive controls. […] Samples were vortexed and centrifuged, and the resulting supernatants were analyzed using LC-MS/MS."}, "[16]": {"molecular_target": "T4, CYP2B6 (Homo sapiens, UniProt P20813)", "T4 construct": "from tissue; host or cells: human liver microsomes", "test": "CYP inhibition", "assay_type": "in vitro ADME", "conditions": "human liver microsomes", "description": "as §1"}, "[17]": {"molecular_target": "T5, CYP2C19 (Homo sapiens, UniProt P33261)", "T5 construct": "from tissue; host or cells: human liver microsomes", "T5 sequence (P33261 whole entry)": "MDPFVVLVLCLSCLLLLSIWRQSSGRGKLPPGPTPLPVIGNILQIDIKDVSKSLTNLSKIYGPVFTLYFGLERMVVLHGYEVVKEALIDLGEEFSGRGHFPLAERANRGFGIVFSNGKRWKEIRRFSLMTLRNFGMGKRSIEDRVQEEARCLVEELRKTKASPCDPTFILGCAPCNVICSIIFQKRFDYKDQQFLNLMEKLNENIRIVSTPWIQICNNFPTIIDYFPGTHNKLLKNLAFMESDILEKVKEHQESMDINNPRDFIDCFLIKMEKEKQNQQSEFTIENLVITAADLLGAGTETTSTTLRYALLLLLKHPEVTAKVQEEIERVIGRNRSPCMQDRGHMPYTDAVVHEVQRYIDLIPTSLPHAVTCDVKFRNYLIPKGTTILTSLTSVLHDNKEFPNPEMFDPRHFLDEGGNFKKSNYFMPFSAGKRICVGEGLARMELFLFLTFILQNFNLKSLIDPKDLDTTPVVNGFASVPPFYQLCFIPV", "test": "CYP inhibition", "assay_type": "in vitro ADME", "conditions": "human liver microsomes", "description": "as §1"}, "[18]": {"molecular_target": "T6, CYP2C8 (Homo sapiens, UniProt P10632)", "T6 construct": "from tissue; host or cells: human liver microsomes", "test": "CYP inhibition", "assay_type": "in vitro ADME", "conditions": "human liver microsomes", "description": "as §1"}, "[19]": {"molecular_target": "T7, CYP2C9 (Homo sapiens, UniProt P11712)", "T7 construct": "from tissue; host or cells: human liver microsomes", "test": "CYP inhibition", "assay_type": "in vitro ADME", "conditions": "human liver microsomes", "description": "as §1"}, "[20]": {"molecular_target": "T8, CYP2D6 (Homo sapiens, UniProt P10635)", "T8 construct": "from tissue; host or cells: human liver microsomes", "test": "CYP inhibition", "assay_type": "in vitro ADME", "conditions": "human liver microsomes", "description": "as §1"}, "[21]": {"molecular_target": "T9, CYP3A4 (Homo sapiens, UniProt P08684)", "T9 construct": "from tissue; host or cells: human liver microsomes", "T9 sequence (P08684 whole entry)": "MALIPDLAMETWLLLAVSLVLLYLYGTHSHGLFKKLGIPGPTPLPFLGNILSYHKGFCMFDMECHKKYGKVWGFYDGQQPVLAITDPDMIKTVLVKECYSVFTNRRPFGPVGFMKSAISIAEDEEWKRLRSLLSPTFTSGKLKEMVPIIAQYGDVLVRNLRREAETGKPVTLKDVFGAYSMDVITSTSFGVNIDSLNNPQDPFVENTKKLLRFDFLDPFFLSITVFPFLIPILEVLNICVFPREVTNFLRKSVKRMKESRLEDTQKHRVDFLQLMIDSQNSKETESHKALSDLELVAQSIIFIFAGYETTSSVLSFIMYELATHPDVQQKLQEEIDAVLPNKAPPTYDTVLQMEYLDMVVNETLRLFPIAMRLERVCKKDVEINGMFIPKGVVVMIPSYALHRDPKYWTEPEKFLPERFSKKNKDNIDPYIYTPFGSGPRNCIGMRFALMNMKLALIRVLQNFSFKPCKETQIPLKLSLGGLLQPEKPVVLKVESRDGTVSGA", "test": "CYP inhibition", "assay_type": "in vitro ADME", "conditions": "human liver microsomes", "description": "as §1"}, "[22]": {"test": "Pharmacokinetic analyses", "assay_type": "in vivo, cynomolgus monkeys", "conditions": "male monkey", "description": "The i.v. formulation in dogs and monkeys was 5% DMAC and 20% sulfobutyl ether β-cyclodextrin in saline. The oral formulation in all species was 5% DMAC in 0.5% methylcellulose aqueous solution. For rats, blood samples were collected at predose, 5 (i.v. dosing only), 15, and 30 minutes, and 1, 2, 4, 6, 8, and 24 hours. For dogs, blood samples were collected at predose, 2.5 and 5 (i.v. dosing only), 15, and 30 minutes, and 1, 2, 3, 4, 6, 8, 12, and 24 hours postdose. For monkeys, blood samples were collected at predose, 5 and 10 (i.v. dosing only), 15, and 30 minutes, and 1, 2, 3, 4, 6, 8, 12, 16, and 24 hours postdose. Collected blood samples were processed to extract plasma by centrifugation and stored at −20 °C until analysis.\nThe plasma was protein precipitated and the diluted supernatant was analyzed using LC/MS/MS. A standard curve was prepared in plasma from 1 to 5,000 nM and processed in the same manner as the samples. The pharmacokinetic parameters were determined using WinNonLin 6.3."}, "[23]": {"test_system": "RT-112 (FGFR3-TACC3 fusion positive) bladder carcinoma model", "test": "RT-112 xenograft efficacy", "assay_type": "in vivo, Rowett Nude rats", "conditions": "oral, 14 days", "description": "The inoculation of 0.5 mL was performed subcutaneously on the flank. The treatment of tumor bearing rats was started 8 days after tumor inoculation."}, "[24]": {"test_system": "xenografted tumor models", "test": "Combination with cisplatin in xenografted tumor models", "assay_type": "in vivo", "conditions": "combination of INCB054828 with cisplatin"}}, "data": [{"compound": "CCN1C(=O)N(c2c(F)c(OC)cc(OC)c2F)Cc2cnc3[nH]c(CN4CCOCC4)cc3c21", "note": "[INCB054828, pemigatinib]", "values": [{"measurement": "IC50", "setting": "[1]", "result": "> 10", "unit": "µM"}, {"measurement": "IC50", "setting": "[2]", "result": "> 10", "unit": "µM"}, {"measurement": "IC50", "setting": "[3]", "result": "> 10", "unit": "µM"}, {"measurement": "IC50", "setting": "[4]", "result": "> 10", "unit": "µM"}, {"measurement": "IC50", "setting": "[5]", "result": "> 10", "unit": "µM"}, {"measurement": "IC50", "setting": "[6]", "result": "> 10", "unit": "µM"}, {"measurement": "IC50", "setting": "[7]", "result": "> 10", "unit": "µM"}, {"measurement": "IC50", "setting": "[8]", "result": "> 10", "unit": "µM"}, {"measurement": "IC50", "setting": "[9]", "result": "> 10", "unit": "µM"}, {"measurement": "IC50", "setting": "[10]", "result": "> 10", "unit": "µM"}, {"measurement": "IC50", "setting": "[11]", "result": 0.801, "unit": "µM"}, {"measurement": "GI50", "setting": "[12]", "result": "> 5", "unit": "µM"}, {"measurement": "GI50", "setting": "[13]", "result": "> 5", "unit": "µM"}, {"measurement": "fraction unbound at 2 h, 1 μM", "setting": "[14]", "result": 0.082}, {"measurement": "IC50", "setting": "[15]", "result": "> 25", "unit": "µM"}, {"measurement": "IC50", "setting": "[16]", "result": "> 25", "unit": "µM"}, {"measurement": "IC50", "setting": "[17]", "result": "> 25", "unit": "µM"}, {"measurement": "IC50", "setting": "[18]", "result": "> 25", "unit": "µM"}, {"measurement": "IC50", "setting": "[19]", "result": "> 25", "unit": "µM"}, {"measurement": "IC50", "setting": "[20]", "result": "> 25", "unit": "µM"}, {"measurement": "IC50", "setting": "[21]", "result": "> 25", "unit": "µM"}, {"measurement": "clearance", "setting": "[22]; cynomolgus monkey, plasma, intravenous 1 mg/kg", "result": 3.3, "unit": "mL/min/kg"}, {"measurement": "Vd", "setting": "[22]; cynomolgus monkey, plasma, intravenous 1 mg/kg, read-out: Vss", "result": 0.584, "unit": "L/kg"}, {"measurement": "half-life", "setting": "[22]; cynomolgus monkey, plasma, intravenous 1 mg/kg, read-out: t½ (converted)", "result": 10.3, "unit": "h"}, {"measurement": "bioavailability", "setting": "[22]; cynomolgus monkey, plasma, oral 2 mg/kg", "result": 29, "unit": "%"}, {"measurement": "Hepatic ER", "setting": "[22]; intravenous 1 mg/kg, % of hepatic blood flow", "result": 8, "unit": "%"}, {"measurement": "AUC", "setting": "[22]; oral 2 mg/kg", "result": 6.19, "unit": "µM·h"}, {"measurement": "tumor growth inhibition", "setting": "[23]; 0.3 mg/kg once daily", "result": "significant tumor growth inhibition"}, {"measurement": "tumor growth inhibition", "setting": "[23]; 1 mg/kg once daily", "result": "significant tumor growth inhibition"}, {"measurement": "benefit of combination with cisplatin over either single agent", "setting": "[24]", "result": "significant benefit over either single agent"}]}]}
